# Data reported in publication PMC6826694, “Validation of Hepatocellular Carcinoma Experimental Models for TGF-β Promoting Tumor Progression” (Cancers, 2019).
# Tests used:
# SK-HEP1-Luc cells = test system: SK-HEP1-Luc cells; design: method as in PMID 26549110; conditions: oral administration, female BALB/C nu/nu, orthotopic SK-HEP1-Luc; ref [45]; cited from earlier work
# HepG2-Luc cells = assay: Orthotopic HCC model, intrahepatic HepG2-Luc cells in NOG mice, tumor growth by IVIS bioluminescence; type: in vivo, mouse; conditions: for Bioluminescence (average radiance, IVIS) vs vehicle (GP1): NOG mice, HepG2-Luc
# Protocol: To evaluate in vivo the effect of Galunisertib (LY2157299) on tumor growth rate we used an orthotopic model: HCC was induced by intrahepatic injections of 1 × 10^6 HepG2-Luc cells in 7–8 weeks old, female NOG mice. The inoculated animals presented a clear engraftment of the liver cancer. The tumor growth was monitored weekly with IVIS Spectrum (PerkinElmer) through intraperitoneal administration of D-Luciferin (Sigma, 150 mg/10 mL/kg) until the end of the experiment.
# Two weeks after the injection of HepG2-Luc cells, 45 mice were selected based on the bioluminescence signal and randomized into three groups of 15 animals. The first group (control group) was treated with 10 mL/kg of a […] vehicle solution (10% DMSO, 30% PEG400, 10% EtOH, 30% saline solution, 20% HCl 0.01 M, final pH 6.0). The second group (GP2) received 10 mL/kg Galunisertib solution via gastric probe (OS) and in the third group of mice (GP3) the drug was administered intravenously (IV) with 5 mL/kg Galunisertib encapsulated in polymeric nanocapsules. This nanoencapsulation was used to optimize the formulation in order to maximize therapeutic efficiency and minimize systemic toxicity. The nanocapsules were prepared from biocompatible and biodegradable polymers as described previously.
# After sacrificing the animals, a complete necropsy was performed and documented by photos. Before sacrificing the animals, they were imaged by IVIS Spectrum to identify bioluminescent tissues for explantation.
# Figure 4 Treatment of NOD/Shi-Scid/IL-2Rγ^null […] (NOG) mice with luciferin-labeled hepatocellular carcinoma (HCC) with vehicle or two Galunisertib preparations. (A). Bioluminescence images of NOG mice prior injected intrahepatically with HepG2-Luc cells at Day 23 and 44 after vehicle injection (GP1), or Galunisertib administration via gavage (GP2) or intravenous route (GP3). (B) Average Radiance (IVIS) versus time after tumor inoculation. Data were averaged over the animals which reached the end of experiment (GP1: n = 15; GP2: n = 14; GP3: n = 10).
# [1] = test system: invasive HCC cells (HLE and HLF); design: method as in PMID 29515105, PMID 26057634; conditions: in vitro and in ex vivo human HCC samples; ref [24, 25]; cited from earlier work
# SKIL and PMEPA1 mRNA = conditions: HCC tumor tissues; ref [26]; cited from earlier work
# HepG2 cells = test system: HepG2 cells; design: method as in PMID 23826206; conditions: exogenous TGF-β1 in vitro, ref [22]; cited from earlier work
# [2] = test system: TGF-β1, TGF-β RI and TGF-β RII mRNA; assay: qRT-PCR mRNA expression in tumor tissues of the orthotopic model; type: in vivo, mouse; conditions: for mRNA expression of TGF-βI, TGF-β RI and TGF-β RII levels vs controls: tumor tissues, qRT-PCR
# Text: No difference was found comparing the two Galunisertib formulations.
# [3] = Appearance / solubility of Galunisertib in the dosing formulations; type: physicochemical
# Protocol: (§1) Firstly, we quantified the concentration of LY2157299 in plasma of female CD-1 mice by a liquid chromatographic method, in order to define the concentration for the therapeutic window. Therefore, the drug was administered orally and given in two formulations. Group 1 (15 mice) received Galunisertib as suspension (75 mg/kg) prepared by mixing Galunisertib with 1% Carboxymethylcellulose, 0.5% Sodium Lauryl Sulfate, 0.085% Povidone, followed by sonication in a water bath sonicator or with a probe sonicator until a fine suspension with a final concentration of 7.5 mg/mL was achieved. Group 2 (15 mice) received Galunisertib as solution (150 mg/kg solution) prepared by dissolving the drug in 10% of dimethylsulfoxide (DMSO), and then adding sequentially polyethylene glycol (PEG)400 (30%), ethanol (EtOH) (10%), saline (30%) and HCl 0.01 M (20%) at a final pH of ~6 under mixing to a final concentration of 15 mg/mL.
# [4] = Plasma pharmacokinetics of Galunisertib after single oral dose (HPLC-FL); type: in vivo, mouse; conditions: for AUC(0-t) / Cmax / Tmax / half-life / k el: mouse, single oral dose, female CD-1 mice, plasma
# Protocol: as §1
# The volume of administration was 10mL/kg for single treatment. Physical appearance, behavior as well as general and local clinical signs of the mice were monitored throughout the experiment. […] At predefined time points (0.5, 1, 2, 4, 8 h after administration), the animals were deeply anesthetized by isoflurane followed by a complete retro-orbital bleeding. The blood was collected in heparinized tubes and centrifuged at 6000× g for 5–10 minutes within 15 minutes after collection. The plasma was transferred to tubes and stored at −20 °C until analysis.
# To quantify the concentration of Galunisertib, plasma was measured by a HPLC/Fluorimetric (HPLC-FL) method.
# The pharmacokinetic parameters (Kelim, T1/2, and Tmax.) represented as mean ± SD of three animals/time for both Galunisertib formulations were determined using the MKModel by Nick Holford software Version 4, (Biosoft, Ferguson, MO, USA) or equivalent pharmacokinetic programs (Table 4).
# CD44 and THY1 = test system: CD44 and THY1; design: method as in PMID 29515105, PMID 26057634; conditions: HLE and HLF cells in vitro; ref [24, 25]; cited from earlier work
# [5] = test system: pancreatic ductal adenocarcinoma; design: method as in PMID 30866547; conditions: ref [17]; cited from earlier work
# TGF-β1 SMAD2/3 pathway = test system: TGF-β1 SMAD2/3 pathway; design: method as in PMID 29957876; conditions: CC14-induced mice; ref [20]; cited from earlier work
# CD133 and Vimentin = test system: CD133 and Vimentin; design: method as in PMID 29805610; conditions: ref [23]; cited from earlier work
# [6] = test system: TGF-β linked EMT transition; conditions: female BALB/C nude mice, subcutaneous Hg2 cells; ref [44]; cited from earlier work
smiles,measurement,setting,value
Cc1cccc(-c2[nH]c(CNc3ccccc3F)nc2-c2ccc3ncnn3c2)n1 [EW-7197],Effect on tumor growth,SK-HEP1-Luc cells,ALK 5 inhibitor interferes with tumor growth
Cc1cccc(-c2nn3c(c2-c2ccnc4ccc(C(N)=O)cc24)CCC3)n1 [Galunisertib],"Bioluminescence (average radiance, IVIS) vs vehicle (GP1)",HepG2-Luc cells; GP2 (LY × OS): 10 mL/kg Galunisertib solution via gastric probe,no significant difference in bioluminescence
same,"Bioluminescence (average radiance, IVIS) vs vehicle (GP1)","HepG2-Luc cells; GP3 (LY × IV): 5 mL/kg Galunisertib encapsulated in polymeric nanocapsules, intravenous",no significant difference in bioluminescence
same,Effect on tumor regression or prevention of metastasis,"HepG2-Luc cells; treated groups (GP2 gavage, GP3 intravenous) vs control, treatment period Day 16–Day 44",no effect on tumor regression or prevention of metastasis
same,"Colony formation, liver spheroids and invasive growth capacity",[1],decrease
same,SKIL and PMEPA1 mRNA expression,SKIL and PMEPA1 mRNA,strongly down-regulated
same,"Effect on TGF-β1-induced changes (flat, larger cells; reduced E-cadherin in cell–cell contact)",HepG2 cells,reversed
same,mRNA level of the drug target compared to controls treated with vehicle,"[2]; orthotopic HepG2-Luc model, NOG mice",statistically significant reduction (p = 0.03)
same,"mRNA expression of TGF-βI, TGF-β RI and TGF-β RII levels vs controls",[2]; mice treated with Galunisertib solution,significant (p < 0.05) down-regulation
same,"mRNA expression of TGF-βI, TGF-β RI and TGF-β RII levels vs controls",[2]; mice treated with encapsulated Galunisertib,significant (p < 0.05) down-regulation
same,Appearance / solubility in formulation,"[3]; new formulation, 150 mg/kg solution: 10% DMSO, 30% PEG400, 10% EtOH, 30% saline, 20% HCl 0.01 M, pH ~6, 15 mg/mL",completely clear solution
same,Appearance / solubility in formulation,"[3]; old formulation (75 mg/kg): 1% Carboxymethylcellulose, 0.5% Sodium Lauryl Sulfate, 0.085% Povidone, 7.5 mg/mL",only moderately soluble
same,Cmax and AUClast higher than the 75 mg/kg suspension,"[4]; 150 mg/kg solution vs 75 mg/kg suspension, considering the dose correcting factor",2.5 fold
same,AUC(0-t),[4]; Solution (150 mg/kg),15500 ng·h/mL
same,Cmax,[4]; Solution (150 mg/kg),19000 ng/mL
same,Tmax,[4]; Solution (150 mg/kg),30 min
same,half-life,[4]; Solution (150 mg/kg),103 min
same,k el,[4]; Solution (150 mg/kg),0.000164 s⁻¹
same,AUC(0-t),[4]; Suspension (75mg/kg),3110 ng·h/mL
same,Cmax,[4]; Suspension (75mg/kg),3330 ng/mL
same,Tmax,[4]; Suspension (75mg/kg),30 min
same,half-life,[4]; Suspension (75mg/kg),84 min
same,k el,[4]; Suspension (75mg/kg),0.000136 s⁻¹
same,Expression of CD44 and THY1,CD44 and THY1,reducing the expression
same,"Effect on mast cell-mediated resistance to GEM/NAB (reduced apoptosis, TGF-β signaling, invasion)",[5],restored
NC(=O)c1ccc(-c2nc(-c3ccc4c(c3)OCO4)c(-c3ccccn3)[nH]2)cc1 [SB431542],Effect on liver fibrosis and TGF-β1 SMAD2/3,TGF-β1 SMAD2/3 pathway,significantly attenuated
same,Expression of CD133 and Vimentin,CD133 and Vimentin,upregulated
C[S+]([O-])CCCCN=C=S (stereo not shown) [Sulforaphane],Effect on TGF-β linked EMT transition,[6],Sulforaphane inhibits TGF-β linked EMT transition
